Reference: patent US20040092566A1, “Celecoxib prodrug” (priority 2002, published 2004)

How the values were obtained:
COX-1 = COX-1 (Homo sapiens, UniProt P23219); details: background statement; cited from earlier work
Chain of COX-1 (P23219 24-599): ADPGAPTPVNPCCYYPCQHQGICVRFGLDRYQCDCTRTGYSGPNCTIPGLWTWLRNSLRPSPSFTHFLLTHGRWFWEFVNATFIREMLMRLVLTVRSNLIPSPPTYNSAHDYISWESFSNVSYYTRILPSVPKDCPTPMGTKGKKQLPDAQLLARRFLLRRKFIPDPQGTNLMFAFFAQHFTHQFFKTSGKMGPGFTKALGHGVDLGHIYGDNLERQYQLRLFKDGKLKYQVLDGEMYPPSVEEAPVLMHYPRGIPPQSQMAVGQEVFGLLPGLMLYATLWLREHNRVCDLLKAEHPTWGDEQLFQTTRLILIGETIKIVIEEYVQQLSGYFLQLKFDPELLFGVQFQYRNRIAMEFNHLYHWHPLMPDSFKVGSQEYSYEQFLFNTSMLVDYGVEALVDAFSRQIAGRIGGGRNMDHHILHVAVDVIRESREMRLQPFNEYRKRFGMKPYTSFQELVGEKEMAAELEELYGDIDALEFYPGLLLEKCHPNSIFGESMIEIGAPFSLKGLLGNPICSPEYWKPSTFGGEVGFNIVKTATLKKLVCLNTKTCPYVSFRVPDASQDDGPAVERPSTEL

| SMILES | in vitro inhibitory activity against COX-1 (COX-1) | melting point |
| --- | --- | --- |
| CCC(=O)NS(=O)(=O)c1ccc(-c2c(-c3ccccc3)noc2C)cc1 [Parecoxib] | weak | – |
| CCC(=O)NS(=O)(=O)c1ccc(-n2nc(C(F)(F)F)cc2-c2ccc(C)cc2)cc1 [compound (V), N-[[4-[5-(4-methylphenyl)-3-(trifluoromethyl)-1H-pyrazol-1-yl]phenyl]-sulfonyl]propanamide] | – | 88.3 to 96.7 °C |
| CCC(=O)[N-]S(=O)(=O)c1ccc(-n2nc(C(F)(F)F)cc2-c2ccc(C)cc2)cc1.[Na+] [compound Z, 4-[5-(4-methylphenyl)-3-(trifluoromethyl)-1H-pyrazol-1-yl]-N-propionylbenzenesulfonamide, sodium salt] | – | > 300 °C |
| Cc1onc(-c2ccccc2)c1-c1ccc(S(N)(=O)=O)cc1 [valdecoxib] | weak | – |
